What was measured:
HCCs in TGFα/c-myc mice [1] = assay: Gd-DTPA-enhanced MRI with and without peptide in TGFα/c-myc mice with HCC; type: in vivo; conditions: for contrast of HCC tumors in the liver in Gd-DTPA-enhanced MRI: T1-weighted 3T MRI
Excerpt: (§1) Male TGFα/c-myc bitransgenic mice were created by crossing homozygous metallothionein/TGFα and albumin/c-myc single-transgenic mice in a CD13B6CBA background as described (Murakami et al., 1993; Haupenthal et al., 2012). After weaning, the animals were given ZnCl2 by way of the drinking water to induce tumors via the expression of TGFα. Starting at an age of 20 weeks, the TGFα/c-myc animals underwent a Primovist-enhanced MRI scan in a 3T MRI Scanner (Siemens 113 Magnetom Trio, Siemens Medical Solutions) as described (Haupenthal et al., 2012; Watcharin et al., 2015; Korkusuz et al., 2013).
So as to determine the effect of iRGD on the Gd-DTPA-enhanced MRI in the HCC, TGFα/c mice with HCC according to a prior Gd-EOB-DTPA (Primovist)-enhanced MRI one week earlier, or nude mice with HepG2 or Huh7 tumors, were included in the experiments. The mice were anesthetized by way of intraperitoneal injection of ketamine (70 mg/kg body weight) and xylazine (10 mg/kg body weight), followed by a basal T1-weighted MRI. Directly thereafter, a Gd-DTPA-enhanced MRI was conducted (Haupenthal et al., 2012). Twelve to 24 hours later, either iRGD or the RGD control peptide was injected ([…] each via the tail vein), followed by a basal and a Gd-DTPA-enhanced MRI (Watcharin et al., 2015). For the quantitative analysis of the MRI data, the signal intensities in user defined “regions of interest” (ROI) were used (Korkusuz et al., 2013). ROIs were placed in the liver and in the tumor tissue. The changes in the signal intensities were ascertained by subtraction of the pre-contrast value from those after the administration of Gd-DTPA. The changes in the signal intensities of the tumors and the livers due to iRGD or the RGD control peptide were indicated as multiples of the values of the Gd-DTPA MRI with prior injection of PBS.
It was examined whether the tumor-permeabilizing effect of iRGD can already be detected by a Gd-DTPA-enhancing MRI, a widely used clinical procedure, in TGFα/c-myc mice with endogenous HCC. For this purpose, TGFα/c-myc mice with HCCs discovered one week prior according to Gd-EOB-DTPA-enhanced MRI were used. […] 12 to 24 hours later, the mice were administered iRGD or the RGD control peptide, followed by another Gd-DTPA-enhanced MRI.
TGFα/c-myc mice in which HCCs had been detected one week prior by way of Gd-EOB-DTPA-enhanced MRI were anesthetized, followed by a basal T1-weighted MRI, and a Gd-DTPA-enhanced MRI directly thereafter. 12 to 24 hours later, either iRGD or RGD control peptide (con. peptide) was injected (100 μL each via the tail vein, 4 mmol/kg) into the same animals, followed by a basal MRI and a Gd-DTPA-enhanced MRI. A. Gd-DTPA-enhanced MRI of TGFα/c-myc mice with HCC (left), followed by an injection of iRGD and another Gd-DTPA-enhanced MRI 12 hours thereafter. Arrows mark the tumor.
B. quantitative analysis of the MRI data. Values are mean values±SD; n=12.

HCCs in TGFα/c-myc mice [2] = assay: Evans blue accumulation after i.v. peptide in TGFα/c-myc mice with endogenous HCC; type: in vivo; conditions: peptide 4 mmol/kg i.v., then Evans blue; for concentration of Evans blue in normal tissue (liver, kidney, spleen and lung): photometry; for Evans blue quantity in the tumors compared to HCCs of mice injected with PBS or control peptide: tissues 30 minutes later, photometric quantification
Excerpt: as §1
So as to examine whether intravenously applied iRGD increases the permeability of the HCC, the effect of intravenously applied iRGD on the levels of co-injected Evans blue, an albumin-binding dye, in TGFα/c-myc mice with endogeneous HCCs according to a Gd-EOB-DTPA-enhanced MRI were analyzed. For this purpose, the mice with HCC were intravenously injected with iRGD, an RGD control peptide without a CendR motif, or PBS, followed by the injection of Evans blue […]. Another 30 minutes later, the animals were terminally perfused.
(§2) TGFα/c-myc mice with MRI-verified HCCs (A) or mice with subcutaneous HepG2 (B) or Huh7 xenotransplants (C) were intravenously injected with 4 mmol/kg iRGD or control peptide (each in PBS), or PBS was injected alone, followed by an injection of EB 5 minutes later. The tissues were harvested after another 30 minutes. The EB accumulation in the tissues was determined by way of photometry. The data involves mean values±SD; n=4 to 5. Asterisks indicate a significant difference (* P<0.05; * P<0.01; *** P<0.001). n.s., not significant.

HCCs in TGFα/c-myc mice [3] = assay: Doxorubicin tissue concentration after i.v. peptide in TGFα/c-myc mice with HCC; type: in vivo; conditions: peptide 4 mmol/kg i.v.; for doxorubicin level in the HCCs: doxorubicin 20 mg/kg iv 10 minutes later, tissues 30 minutes later; for levels of doxorubicin in the organs: doxorubicin 20 mg/kg iv, FIG. 2A
Excerpt: as §1
Furthermore, the effect of iRGD on the tissue concentrations of intravenously applied doxorubicin, a tumor therapeutic agent that can be detected due to the inherent fluorescence in tissue sections and tissue extracts, in the TGFα/c-myc and in the HepG2 xenotransplant HCC mouse model was analyzed. […] The control peptide had no effects on the doxorubicin level in any of the tissues.
TGFα/c-myc mice with radiologically verified HCCs (A) or nude mice with subcutaneous HepG2 xenotransplants (B) were intravenously injected with 4 mmol/kg iRGD or control peptide (each in PBS), or treated with PBS alone, followed by a doxorubicin (20 mg/kg iv) injection 10 minutes later. The tissues were collected another 30 minutes later and stored, and the doxorubicin concentration was determined. The values are mean values±SD; n=5 to 6. Asterisks indicate a significant difference (**P<0.01; ***P<0.001).

HepG2 xenotransplants [4] = assay: Doxorubicin tissue concentration after i.v. peptide in nude mice with HepG2 xenotransplants; type: in vivo; conditions: nude mice with subcutaneous HepG2 xenotransplants; peptide 4 mmol/kg i.v., doxorubicin 20 mg/kg iv
Procedure: HepG2- and Huh7 cells (ATCC and RIKEN BioResource Center) were cultivated in DMEM with 10% FBS and penicillin/streptomycin (Life Technologies). 5 million cells in 100 μL PBS were injected into the sides of NMRI Foxn1 nude mice (Harlan Laboratories B.V.). Four weeks later the mice were assigned to the test groups. Furthermore, the effect of iRGD on the tissue concentrations of intravenously applied doxorubicin, a tumor therapeutic agent that can be detected due to the inherent fluorescence in tissue sections and tissue extracts, in the TGFα/c-myc and in the HepG2 xenotransplant HCC mouse model was analyzed. […] The control peptide had no effects on the doxorubicin level in any of the tissues. TGFα/c-myc mice with radiologically verified HCCs (A) or nude mice with subcutaneous HepG2 xenotransplants (B) were intravenously injected with 4 mmol/kg iRGD or control peptide (each in PBS), or treated with PBS alone, followed by a doxorubicin (20 mg/kg iv) injection 10 minutes later. The tissues were collected another 30 minutes later and stored, and the doxorubicin concentration was determined. The values are mean values±SD; n=5 to 6. Asterisks indicate a significant difference (**P<0.01; ***P<0.001).

HepG2 xenotransplants [5] = assay: Evans blue accumulation after i.v. peptide in nude mice with HepG2 xenotransplants; type: in vivo, NMRI Foxn1 nude mice; conditions: subcutaneous HepG2 xenotransplants, peptide 4 mmol/kg i.v., p≤0.002
Procedure: (§3) HepG2- and Huh7 cells (ATCC and RIKEN BioResource Center) were cultivated in DMEM with 10% FBS and penicillin/streptomycin (Life Technologies). 5 million cells in 100 μL PBS were injected into the sides of NMRI Foxn1 nude mice (Harlan Laboratories B.V.). Four weeks later the mice were assigned to the test groups.
(§4) So as to examine whether the tumor-permeabilizing effect of iRGD also occurs in HCC nude mice tumor models, the effect of intravenously applied iRGD on the level of co-applied Evans blue in nude mice which had HepG2 or Huh7 xenotransplants was analyzed. iRGD effectuated an increase in the concentrations of co-applied Evans blue in HepG2-xenotransplanted and Huh-7-xenotransplanted tumors by a factor of 3.4 (p≤0.002) (in HepG2 tumors) and 2.6-fold in Huh7 tumors (p<0.001) compared to the corresponding tumors of nude mice injected with PBS and the control peptide (FIGS. 1B and C).
as §2, with “Asterisks indicate a significant difference (* P<0.05; * P<0.01; *** P<0.001). n.s., not significant.” left out

Huh7 xenotransplants [6] = assay: Evans blue accumulation after i.v. peptide in nude mice with Huh7 xenotransplants; type: in vivo, NMRI Foxn1 nude mice; conditions: subcutaneous Huh7 xenotransplants, peptide 4 mmol/kg i.v., p<0.001
Procedure: as §3, §4
as §2, with “Asterisks indicate a significant difference (* P<0.05; * P<0.01; *** P<0.001). n.s., not significant.” left out

HepG2 tumors = assay: Gd-DTPA-enhanced MRI with and without peptide in nude mice with HepG2 xenotransplants; type: in vivo
Procedure: as §3
(§5) So as to determine the effect of iRGD on the Gd-DTPA-enhanced MRI in the HCC, TGFα/c mice with HCC according to a prior Gd-EOB-DTPA (Primovist)-enhanced MRI one week earlier, or nude mice with HepG2 or Huh7 tumors, were included in the experiments. The mice were anesthetized by way of intraperitoneal injection of ketamine (70 mg/kg body weight) and xylazine (10 mg/kg body weight), followed by a basal T1-weighted MRI. Directly thereafter, a Gd-DTPA-enhanced MRI was conducted (Haupenthal et al., 2012). Twelve to 24 hours later, either iRGD or the RGD control peptide was injected ([…] each via the tail vein), followed by a basal and a Gd-DTPA-enhanced MRI (Watcharin et al., 2015). For the quantitative analysis of the MRI data, the signal intensities in user defined “regions of interest” (ROI) were used (Korkusuz et al., 2013). ROIs were placed in the liver and in the tumor tissue. The changes in the signal intensities were ascertained by subtraction of the pre-contrast value from those after the administration of Gd-DTPA. […]

Huh7 xenotransplants [7] = assay: Gd-DTPA-enhanced MRI with and without peptide in nude mice with Huh7 xenotransplants; type: in vivo; conditions: p=0.0081
Procedure: as §3, §5

4T1 tumor = assay: Gd-DTPA-enhanced MRI with and without peptide in syngeneic 4T1 breast cancer mouse model; type: in vivo; conditions: BALB/c mice, 4T1 cells in mammary gland no. 4; peptide 4 mmol/kg; p<0.05
Procedure: 4T1 cells (ATCC) were cultivated in RPMI 1640 medium with 10% FBS and penicillin/streptomycin (Life Technologies). BALB/c mice were injected with 2.5×10^4 4T1 cells into mammary gland no. 4 of the mouse, and the tumors were allowed to grow for two weeks.
Furthermore, it was examined to what extent iRGD also influences the MRI signal of the tumor in the Gd-DTPA-enhanced MRI in the syngeneic 4T1 breast cancer mouse model.
Effect of iRGD and the RGD control peptide on the increase in the signal intensity in the Gd-DTPA-enhanced MRI in the liver and in the 4T1 tumors in BALB/c mice. BALB/c mice were injected with 2.5×10^4 4T1 cells into mammary gland no. 4 of the mouse. Two weeks later, the mice were anesthetized, followed by a basal T1-weighted MRI, and a Gd-DTPA-enhanced MRI directly thereafter. 12 to 24 hours later, either iRGD or RGD control peptide (con. peptide) was injected (100 μL each via the tail vein, 4 mmol/kg) into the same animals, followed by a basal MRI and a Gd-DTPA-enhanced MRI. The data was quantitatively analyzed. Values are mean values±SD; n=6.

Row | Compound | contrast of HCC tumors in the liver in Gd-DTPA-enhanced MRI (HCCs in TGFα/c-myc mice [1]) | concentration of Evans blue in normal tissue (liver, kidney, spleen and lung) (HCCs in TGFα/c-myc mice [2]) | Evans blue quantity in the tumors compared to HCCs of mice injected with PBS or control peptide (HCCs in TGFα/c-myc mice [2]) | doxorubicin level in the HCCs (HCCs in TGFα/c-myc mice [3]) | levels of doxorubicin in the organs (HCCs in TGFα/c-myc mice [3]) | doxorubicin level in the HCCs (HepG2 xenotransplants) (HepG2 xenotransplants [4]) | signal intensities in normal organs in Gd-DTPA-enhanced MRI (HCCs in TGFα/c-myc mice [1]) | increase in concentration of co-applied Evans blue in HepG2 tumors vs PBS and control peptide (HepG2 xenotransplants [5]) [fold] | increase in concentration of co-applied Evans blue in Huh7 tumors vs PBS and control peptide (Huh7 xenotransplants [6]) [fold] | increase of signal intensities in the tumors in Gd-DTPA-enhanced MRI vs RGD control peptide or PBS (HCCs in TGFα/c-myc mice [1]; peptide 4 mmol/kg via tail vein, quantitative densitometric analysis, n=12) [fold] | signal intensity of the tumors in Gd-DTPA-enhanced MRI (HepG2) (HepG2 tumors; p=0.0311) | rise in signal intensity of the tumors in Gd-DTPA-enhanced MRI, other HCC mouse models (HepG2) (HepG2 tumors; stated for 'the other HCC mouse models') [fold] | rise in signal intensity of the tumors in Gd-DTPA-enhanced MRI (Huh7) (Huh7 xenotransplants [7]) [fold] | MRI signal in the Gd-DTPA-enhanced MRI in the 4T1 tumor (4T1 tumor)
1 | O=C([O-])CN(CCN(CC(=O)[O-])CC(=O)O)CCN(CC(=O)[O-])CC(=O)O.[Gd+3] [Gd-DTPA, reference compound] | highly negative contrasts | – | – | – | – | – | – | – | – | – | – | – | – | –
2 | CRGDDGPKC [RGD control peptide, RGD control peptide without a CendR motif; acquired from GenScript, reference compound] | negatively contrasted | had no impact | had no effect | no effects | no effects | no effects | no effects | – | – | – | – | – | – | –
3 | CRGDKGPDC [iRGD] | contrasting positively | had no impact | three-fold increase | increase in the doxorubicin level | no effects | increase in the doxorubicin level | no effects | 3.4 | 2.6 | 2 | rise in the signal intensity | ≤ 2 | 1.5 | significant increase in the MRI signal
